From patent publication US5985926A, “Method for inhibiting intracellular viral replication” (Cell Therapeutics, Inc., priority 1997, dated 1999)

Key:
[1] = Viability of 293-EBNA cells (dye not stated); conditions: human
[2] = test system: HIV-LTR promoter (tat transactivation) in 293-EBNA cells; assay: AP reporter gene expression from HIV-LTR promoter with tat expression vector, 293-EBNA cells; type: cell-based, HIV; human cells
Excerpt: The plasmid construct, pHIV.AP, using the human immunodeficiency virus (HIV) long terminal repeat (LTR) promoter (derived from pU3R-III CAT, Sodroski et al., Science 227:171, 1985) to direct the expression of the sPAP reporter gene, was made by replacing the CMV promoter region from pCMV.AP with the HIV-LTR promoter. PHIV.AP was co-transfected with pSV2tat72, an expression vector for the 72 amino acids tat protein from HIV (Frankel and Pabo, Cell 55:1189-1193, 1988), into 293-EBNA cells (Invitrogen). The cultured cells were treated with various concentrations of the compounds. The expression of the alkaline phosphatase (AP) reporter gene in the individual cultures was measured by following change in absorbance at 405 nm of the cell conditioned media in the presence of a suitable substrate (e.g., ortho-nitrophenol phosphate) (Berger et al., Gene 66:1-10, 1988).
We set up a cell-based system with a cell line cotransfected with an expression plasmid using HIV-1-LTR promoter to direct synthesis of AP reporter gene and an expression plasmid to direct synthesis of the first 72 amino acids of tat protein. Plasmid pREP7 (Invitrogen) was converted to pREP7b by deleting 2,040 bp EBNA-1 coding region and by replacing the pBR322 origin of replication (ori) with the pBluescript KS (Stratagene) ori region. The cDNA for secreted placental alkaline phosphatase (AP) was generated by PCR with the primers (5'-[…]-3')(SEQ ID NO. 3) and (5'-[…]-3') (SEQ ID NO. 4)using the plasmid pGEM-4Z/PLAP489 (American Type Culture Collection) as the template. The 2,000 bp Xba I-Sal I fragment obtained was ligated into a Nhe I/Xho I vector derived from pREP7b to generate the plasmid pREP7b.AP. The 44 bp Xba I-Bgl II fragment from plasmid pMEP4 (Invitrogen)and the 36 bp BamH I-Kpn I fragment from pREP7 were ligated into the Xba I-Kpn I vector fragment from pREP7b.AP to generate the plasmid pMCS.AP. The 720 bp Xho I-Hind III fragment encoding the HIV-LTR promoter from the plasmid pU3R-III-CAT (Sodroski et al., Science 227:171-173, 1985) was ligated into the Xho I-Hind III vector fragment of PMCS.AP to generate the plasmid pHIV.AP. The CMV promoter was derived from the 600 bp Spe I-Asp718 I fragment from pCEP4 (Invitrogen). The 360 bp SV40 early promoter fragments were produced from pSV2tat72 (Frankel et al., Cell 55:1189-1193,1988) by PCR using the primers (5'-[…]-3') (SEQ ID NO. 5) and (5'-[…]-3') (SEQ ID NO. 6). The 480 bp phosphoglycerate kinase (PGK) promoter fragment was amplified from human placental genomic DNA (Promega, Madison, Wis.) based on published sequence (Pfeifer et al., Science 246:810-813, 1990) using the primers (5'-[…]-3') (SEQ ID NO. 7) and (5'-[…]-3') (SEQ ID NO. 8). The above fragments were ligated into the Xba I-Asp718 I vector fragment of pHIV.AP to generate pHIV2.AP, pHIV3.AP, pCMV.AP, pSVE.AP and PPGK.AP respectively. The tat-expression plasmid directed by HIV-LTR promoter, pHIV.tat, was generated by inserting the 400 bp EcoRV-HindIII fragment from pHIV.AP into the PvuII-HindIII vector fragment from pSV2tat72 (Frankel et al., Cell 55:1189-1193, 1988).
Transient transfections with various expression plasmids were performed on a human kidney embryonic cell line 293-EBNA (Invitrogen) using the cationic lipid DOTAP (Boehringer Mannheim). The cell culture media were changed 24 hr after transfection into a serum-free medium AIM V (Life Technologies) before addition of compounds or TNF-α (PeproTech) at the appropriate concentrations. AP activity measured by a colorimetric assay (Berger et al., Gene 66:1-10, 1988) was performed 19-24 hr later.

[3] = test system: CMV promoter in 293-EBNA cells; assay: AP reporter gene expression from CMV promoter, 293-EBNA cells stably transfected with pCMV.AP; type: cell-based, human cytomegalovirus; human cells; conditions: Homo sapiens, 293-EBNA; FIG. 8; read-out: concentration inhibiting AP activity by 50% (CMV assay)
Experimental: An assay for measuring the anti-viral activity of the compounds involves testing the abilities of the compounds to inhibit gene expression directed by specific viral promoters in cell lines. Specifically, a plasmid construct, pCMV.AP, using the human cytomegalovirus (CMV) enhancer and promoter to direct the expression of the secreted human placental alkaline phosphatase reporter gene were transformed into a tumor cell line (e.g., 293-EBNA cells). The cultured cells were treated with various concentrations of the compounds. The expression of the alkaline phosphatase (AP) reporter gene in the individual cultures can then be measured by following the change in absorbance at A405 of the cell conditioned media in the presence of a suitable substrate (e.g., ortho-nitrophenol phosphate) (Berger et al., Gene 66:1,1988).
The construction of expression vectors for secreted placental alkaline phosphatase (sPAP) was performed by obtaining a mammalian episomal expression vector pBL3, derived from the plasmids pMEP4 and pCEP4 (Invitrogen Corp). Specifically, a 600 bp Spe I--Kpn I fragment spanning the CMV promoter from pCEP4 and a 9500 bp Xba I--Kpn I vector fragment from pMEP4 were isolated and ligated together to form pBL3. Full length sPAP cDNA was amplified by PCR using the plasmid pGEM4Z/SEAP (ATCC) as template with primers 5'-[…]-3' (SEQ ID NO. 1) and 5'-[…]-3' (SEQ ID NO. 2). The PCR product was then digested with Xba I and Sal I and inserted between the Nhe I site and the Xho I site within the multiple cloning region of pBL3. The resulting plasmid was designated as PCMV.AP.

[4] = Viability of 293-EBNA cells, Alamar Blue; type: cell-based, human; conditions: human, 293-ebna cells; read-out: LD50 (CMV assay, FIG. 9)
Experimental: (§1) Cell viability was measured by a colorimetric assay that uses Alamar Blue dye (Alamar, Inc.) to report cell proliferation, viability and cytotoxicity. This vital dye indicates cell activity by serving as substrate for mitochrondrial dehydrogenases for the formation of soluble dyes which can be quantitated by determining the difference in absorbance between A570 and A600 using a plate reader.
as §1, with “[…]” for “colorimetric”
This example illustrates that CT2576 suppressed both tat-dependent and TNF-α induced HIV-LTR transcription with an IC50 of approximately 10 μM. Study of the effects of CT2576 on cell toxicity was performed using the Alamar Blue™ dye (Alamar Biosciences) according to the manufacturer's instructions. CT2576 was not toxic to 293-EBNA cells at concentrations up to 35 μM. To show CT2576 can inhibit HIV expression, CT2576 was tested for the ability to block HIV p24 antigen expression in chronically or acutely infected cells. Specifically, CT2576 inhibited the TNF-α and IL-6 induced and the constitutive expression of HIV in the chronically infected U1 cells and in peripheral blood lymphocytes (PBL) freshly infected with a HIV strain from a clinical isolate with an IC50 of approximately 1 μM. Pharmacological inhibition of synthesis of selected PL may therefore be a novel therapeutic approach to suppression of HIV replication.

NFκB = NFκB activation in 293tat cells, electrophoretic mobility shift assay; type: cell-based, human; conditions: CT2576 12 μM, TNF-α 40 ng/ml or IL-1β 1 ng/ml
Experimental: (§2) Nuclear extracts (A) from 293tat cells were tested by EMSA for activation of NFκB. A radiolabeled 40-mer covering the NFκB sequences in the HIV promoter was used as a probe. Cells were incubated with CT2576 at 12 μM, human TNF-α at 40 ng/ml or IL-1β at 1 ng/ml, or pre-incubated for 30 min. with CT2576 and then stimulated with TNF-α or IL-1β for 18 hr prior to making extracts. RNA was extracted from 293tat cells (B) after treatment with CT2576 without or with TNF-α or IL-1β for 18 hr. Northern blots analysis were performed using probes derived from AP cDNA and G3PDH cDNA as a control for normalization of mRNA level. AP activity was determined in cell supernatants from the various samples.
(§3) NFκB binding activity in nuclear extracts (Dignam et al., Nucleic Acids Res. 11:1475-1489, 1983) of cells was measured by electrophoretic mobility-shift assay (EMSA) (Carthew et al., Cell 43:439-448, 1985) using 5'-labeled double-stranded synthetic DNA with two NF-κB motifs. Northern blot analysis was performed with total RNA run on 1% agarose/formaldehyde gel and probed with ^32 P-labeled cDNA of AP and glyceraldehyde-3-phosphate dehydrogenase (G3PDH).

[5] = test system: HIV-LTR promoter in 293-EBNA cells; assay: AP reporter expression in 293-EBNA cells with HIV-LTR plasmids, TNF-α stimulation; type: cell-based, HIV; human cells
Experimental: FIG. 14 illustrates the effect of tat and TNF-α on HIV-LTR-mediated reporter gene expression in 293-EBNA cells. The y-axis refers to the relative amount of AP reporter gene activity present in the culture media of 293-EBNA cells after transient transfection with various plasmids. Freshly trypsinized 293-EBNA cells at 10^4 cells per sample were transfected with 2 μg of either pHIV.AP, pHIV2.AP, or pHIV3.AP alone or in combination with pSV2tat72 or pHIV.tat using the cationic lipid DOTAP. The plasmids pHIV.AP, pHIV2.AP, and pHIV3.AP contain nucleotides -453 to +80, -107 to +80, and -80 to +80 of the HIV-LTR sequence respectively. Transfected cells were plated in 96-well microtiter plates at 2,000 cells per well. The cell culture media were changed 24 hr later into new medium. The samples were incubated for another 24 hr with or without TNF-α (20 ng/ml). 2 μl of medium from each well was used for AP assay. The height of each column represents the mean of triplicate samples with error bar indicating the standard deviation of the mean.
AP reporter gene activity expressed in 293-EBNA cells transfected with either pHIV.AP alone or in combination with pSV2tat72, pHIV.tat or with TNF-α stimulation is shown in FIG. 14. The plasmid pHIV.AP contains the full-length HIV-LTR sequence that extends from nucleotides -453 to +80. The expression level of AP was low using the pHIV.AP construct alone, indicating the presence of negative regulatory elements in the HIV-LTR sequence. Induction with TNF-α increased the AP expression level by about 4 fold. The AP expression level increased by 15 to 70 fold in the presence of the tat expression plasmids pHIV.tat or pSV2tat72. […] TNF-α and tat in combination enhanced the AP expression level by two fold when using the pSV2tat72 construct, and by ten fold when using the pHIV.tat construct, but the final levels of AP activity were similar.

AP mRNA in 293tat cells = assay: AP mRNA level in 293tat cells, Northern blot; type: cell-based, human; conditions: with TNF-α or IL-1β
Experimental: as §2, §3

[6] = test system: phosphatidic acid (PA) subspecies in 293tat cells; assay: PA composition of 293tat cells by HPLC; type: cell-based, human
Experimental: One must first quantitatively and qualitatively separate PAs from the other lipids found in serum by a chemical extraction of lipids and high performance liquid chromatography (HPLC) to separate and detect PAs. […] Briefly, the method of Bligh et al. involves an organic extraction of lipids from biological tissue homogenates or fluids. One volume of sample and three volumes of methanol:chloroform (2:1) are vigorously shaken for 2 min. One volume of chloroform is added and then shaken vigorously for 30 sec. One volume of water is added and then shaken vigorously for 30 sec. The mixture is filtered and the upper aqueous layer is discarded. The lower organic layer contains a mixture of lipid classes. The method of Folch et al. involves the extraction of lipids from biological tissue homogenates or body fluids. One volume of sample plus 20 volumes of chloroform:methanol (2:1) are vigorously shaken for 2 min. The mixture is filtered and an amount of 0.1 N KCl equal to 20% of the extraction mixture volume is added and the mixture is shaken vigorously for 2 min. The aqueous and organic phases are allowed to separate. The upper aqueous layer is discarded. The lower organic layer contains a mixture of lipid classes. […] This method involves separation of lipids into their major classes by normal phase (silica) high performance liquid chromatography (HPLC). A 5 micron, 25 cm×0.45 cm silica HPLC column is connected to a binary solvent delivery system followed with a UV detector. The lipid sample is injected on the column and a solvent gradient is run at 1.0 ml/min. The solvent gradient is hexane:isopropanol:water in the proportions 3:4:0.75 run isocratically for 3 min, then ramped to hexane:isopropanol:water in the proportions 3:4:1.4 in 15 min, then run isocratically at the same proportions for 15 min. Detection is at 206 nm.
One of the steps after cell activation involves the hydrolysis of phosphatidylcholine (PC), the major phospholipid of cellular membranes, by phospholipases C and D, leading to the generation of second messengers, such as PA and DG, in the signal transduction cascade.

## CCCCCCCCCCCCNCC(O)CCCCCCCn1c(=O)c2c(ncn2C)n(C)c1=O (stereo not drawn) [CT2573, 1-(9-dodecylamino-8-hydroxynonyl)-3,7-dimethylxanthine]
[1]
  CC50: ~5 µM
[2]; 293-EBNA cells, HIV promoter, in words
  inhibition of AP expression (HIV-LTR promoter): did not affect AP activity
[2]; Homo sapiens, 293-EBNA, read-out: concentration inhibiting AP expression by 50%
  IC50: 1 to 4 µM

## CCCCCCCCNCC(O)CCCCCCCCCN1C(=O)Cc2ccccc2C1=O (stereo not drawn) [CT1115, N-(11-octylamino-10-hydroxyundecyl)homophthalimide]
[3]
  IC50: 2 to 6 µM
[4]
  CC50: ~5 µM

## TNF-α
NFκB
  activation of NFκB: NFκB was activated
[5]; TNF-α and tat in combination, pHIV.tat construct
  fold enhancement of AP expression by TNF-α with pHIV.tat: ten
[5]; TNF-α and tat in combination, pSV2tat72 construct
  fold enhancement of AP expression by TNF-α with pSV2tat72: two
[5]; pHIV.AP alone
  fold increase of AP expression level by TNF-α: about 4 fold
AP mRNA in 293tat cells
  AP transcript / mRNA steady-state level: induction of AP transcripts
[6]; TNF-α 45 sec
  increase of C14-16 saturated acyl chain PA peak: up to 80%
[6]; TNF-α 45 sec (from 5.4%)
  C14-16 saturated PA peak, share of total far UV absorbing lipids after TNF-α: 9%
